# Reference: paper PMC6421105 (Bioorganic & medicinal chemistry, 2019)
# Experiments:
# intracellular T. cruzi = settings: racemic mixture; cited from earlier work
# T. cruzi (amastigotes) = test: T. cruzi amastigote assay; assay type: cell-based, Trypanosoma cruzi; settings: for IC50: Trypanosoma cruzi, Vero, 72 h, read-out: T. cruzi (amastigotes) ED50; for Antiparasitic activity against intracellular T. cruzi (in words): amastigotes
# Vero cells = assay type: cell-based; settings: for Cytotoxicity at 15 µM / Cytotoxicity at 20 µM: 72 h; for Cytotoxicity ED50: treatment for 72 h
# truncated TcSQS = settings: soluble enzyme cloned and expressed in Escherichia coli; cited from earlier work
# [1] = system: mitochondrial and glycosomal TcSQS (wild type); settings: membrane protein; cited from earlier work
compound,measurement,setting,value
N#C[Se]CC1Cc2ccc(Oc3ccccc3)cc2O1 (racemic) [(±)-8],ED50 against intracellular T. cruzi,intracellular T. cruzi,0.083 µM
same,IC50,T. cruzi (amastigotes),0.0939 ± 0.025 µM
"FC(F)(F)SCCOc1ccc(Oc2ccccc2)cc1 [Compound 9, (2-(4-Phenoxyphenoxy)ethyl)(trifluoromethyl)sulfane]",IC50,T. cruzi (amastigotes),> 10 µM
"FC(F)(F)[Se]CCOc1cccc(Oc2ccccc2)c1 [Compound 12, (2-(3-Phenoxyphenoxy)ethyl)(trifluoromethyl)selane]",IC50,T. cruzi (amastigotes),> 1 µM
"N#CCCOc1ccc(Oc2ccccc2)cc1 [Compound 13, 4-Phenoxyphenoxyethyl cyanide]",IC50,T. cruzi (amastigotes),> 10 µM
same,Antiparasitic activity against intracellular T. cruzi (in words),T. cruzi (amastigotes),inactive
"N#CCCCOc1ccc(Oc2ccccc2)cc1 [Compound 14, 3-(4-Phenoxyphenoxy)propyl cyanide]",IC50,T. cruzi (amastigotes),> 10 µM
same,Antiparasitic activity against intracellular T. cruzi (in words),T. cruzi (amastigotes),inactive
"COc1ccc(OCC[Se]C#N)cc1 [Compound 20, 4-Methoxyphenoxyethyl selenocyanate]",Cytotoxicity at 15 µM,Vero cells,"^**cytotoxic at 20 µM, 15 µM"
same,Cytotoxicity at 20 µM,Vero cells,"^**cytotoxic at 20 µM, 15 µM"
same,IC50,T. cruzi (amastigotes),> 10 µM
same,T. cruzi (amastigotes) inhibition at 6 µM,T. cruzi (amastigotes); at 6 µM,no inhibition
"N#C[Se]CCOc1ccccc1 [Compound 21, Phenoxyethyl selenocyanate]",Cytotoxicity at 20 µM,Vero cells,^**cytotoxic at 20 µM
same,IC50,T. cruzi (amastigotes),> 10 µM
"N#C[Se]CCOc1ccc([N+](=O)[O-])cc1 [Compound 22, 4-Nitrophenoxyethyl selenocyanate]",Cytotoxicity at 15 µM,Vero cells,"^**cytotoxic at 20 µM, 15 µM"
same,Cytotoxicity at 20 µM,Vero cells,"^**cytotoxic at 20 µM, 15 µM"
same,IC50,T. cruzi (amastigotes),3.87 ± 1.3 µM
"N#C[Se]CCOc1ccccc1Oc1ccccc1 [Compound 43, 2-Phenoxyphenoxyethyl selenocyanate]",IC50,T. cruzi (amastigotes),> 10 µM
same,Antiparasitic activity against intracellular T. cruzi (in words),T. cruzi (amastigotes),free of anti-T. cruzi activity
"N#CSCCOc1ccccc1Oc1ccccc1 [Compound 44, 2-Phenoxyphenoxyethyl thiocyanate]",IC50,T. cruzi (amastigotes),> 10 µM
same,Antiparasitic activity against intracellular T. cruzi (in words),T. cruzi (amastigotes),free of anti-T. cruzi activity
"N#CSCCOc1ccc(Oc2ccccc2)cc1 [WC-9, 4-Phenoxyphenoxyethyl Thiocyanate]",Inhibition of truncated TcSQS (in words),truncated TcSQS,inactive
same,Inhibition of TcSQS enzymatic activity (in words),[1],non-competitive nanomolar inhibitor
"O=C(Cn1ccnc1[N+](=O)[O-])NCc1ccccc1 [benznidazole, reference compound]",IC50,T. cruzi (amastigotes),2.48 ± 0.45 µM
(2-(3-Phenoxyphenoxy)ethyl)(trifluoromethyl)sulfane [Compound 10],Cytotoxicity ED50,Vero cells,> 20 µM
same,T. cruzi (amastigotes) % inhibition at 1.0 µM,T. cruzi (amastigotes); at 1.0 µM,6.7%
(2-(4-Phenoxyphenoxy)ethyl)(trifluoromethyl)selane [Compound 11],Cytotoxicity ED50,Vero cells,> 20 µM
